According to patent US9669034B2, “4-aryl-N-phenyl-1,3,5-triazin-2-amines containing a sulfoximine group” (BAYER INTELLECTUAL PROPERTY GMBH, priority 2011, dated 2017):

Tests used:
[1] = target: CDK9/CycT1 (Homo sapiens (Human), UniProt P50750); test: CDK9/CycT1 kinase assay (TR-FRET); format: biochemical; settings: Method 1
Source text: 1. CDK9/CycT1 Kinase Assay:
CDK9/CycT1—inhibitory activity of compounds of the present invention was quantified employing the CDK9/CycT1 TR-FRET assay as described in the following paragraphs:
Recombinant full-length His-tagged human CDK9 and CycT1, expressed in insect cells and purified by Ni-NTA affinity chromatography, were purchased from Invitrogen (Cat. No PV4131). As substrate for the kinase reaction biotinylated peptide biotin-Ttds-[…]

[2] = system: HeLa human cervical tumour cells; test: Proliferation assay (crystal violet), HeLa; format: cell-based; settings: Homo sapiens, HeLa, Method 3, read-out: Inhibition of HeLa cell proliferation, IC50
Description: Cultivated tumour cells (NCI-H460, human non-small cell lung carcinoma cells, ATCC HTB-177; DU145, hormone-independent human prostate carcinoma cells, ATCC HTB-81; HeLa-MaTu, human cervical carcinoma cells, EPO-GmbH, Berlin; HeLa-MaTu-ADR, multidrug-resistant human cervical carcinoma cells, EPO-GmbH, Berlin; HeLa human cervical tumour cells, ATCC CCL-2; Caco-2 human colorectal carcinoma, ATCC HTB-37; B16F10 mouse melanoma cells, ATCC CRL-6475) were plated at a density of 5000 cells/well (DU145, HeLa-MaTu-ADR), 3000 cells/well (NCI-H460, HeLa-MaTu, HeLa), 1500 cells/well (Caco-2), or 1000 cells/well (B16 F10) in a 96-well multititer plate in 200 μL of their respective growth medium supplemented 10% fetal calf serum. After 24 hours, the cells of one plate (zero-point plate) were stained with crystal violet (see below), while the medium of the other plates was replaced by fresh culture medium (200 μL), to which the test substances were added in various concentrations (0 M, as well as in the range of […]; the final concentration of the solvent dimethylsulfoxide was 0.5%). The cells were incubated for 4 days in the presence of test substances. Cell proliferation was determined by staining the cells with crystal violet: the cells were fixed by adding 20 μL/measuring point of an 11% glutaric aldehyde solution for 15 minutes at room temperature. After three washing cycles of the fixed cells with water, the plates were dried at room temperature. The cells were stained by adding 100 μL/measuring point of a 0.1% crystal violet solution (pH 3.0). After three washing cycles of the stained cells with water, the plates were dried at room temperature. The dye was dissolved by adding 100 μL/measuring point of a 10% acetic acid solution. The absorbance was determined by photometry at a wavelength of 595 nm. The change of cell number, in percent, was calculated by normalization of the measured values to the absorbance values of the zero-point plate (=0%) and the absorbance of the untreated (0 M) cells (=100%). The IC50 values were determined by means of a 4 parameter fit.

[3] = target: CDK2/CycE (Homo sapiens (Human), UniProt P24941); test: CDK2/CycE kinase assay (TR-FRET); format: biochemical; settings: Method 2
Source text: 2. CDK2/CycE Kinase Assay:
CDK2/CycE—inhibitory activity of compounds of the present invention was quantified employing the CDK2/CycE TR-FRET assay as described in the following paragraphs:
Recombinant fusion proteins of GST and human CDK2 and of GST and human CycE, expressed in insect cells (Sf9) and purified by Glutathion-Sepharose affinity chromatography, were purchased from ProQinase GmbH (Freiburg, Germany). As substrate for the kinase reaction biotinylated peptide biotin-Ttds-[…]

[4] = unit cell empty (table: nM or μM)

CDK9/CycT1, sequence (P50750 whole entry): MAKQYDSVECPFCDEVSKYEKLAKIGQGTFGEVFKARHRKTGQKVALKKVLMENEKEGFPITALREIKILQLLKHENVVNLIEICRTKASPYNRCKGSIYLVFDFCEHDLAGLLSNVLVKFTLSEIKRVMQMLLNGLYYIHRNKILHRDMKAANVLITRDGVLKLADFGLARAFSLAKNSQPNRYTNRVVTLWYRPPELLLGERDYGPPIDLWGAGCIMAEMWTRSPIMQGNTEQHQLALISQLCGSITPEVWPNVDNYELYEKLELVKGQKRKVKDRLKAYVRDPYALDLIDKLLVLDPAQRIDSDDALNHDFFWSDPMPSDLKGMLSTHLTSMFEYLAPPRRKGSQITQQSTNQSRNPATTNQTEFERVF
CDK9/CycT1, sequence (O60563 whole entry partner): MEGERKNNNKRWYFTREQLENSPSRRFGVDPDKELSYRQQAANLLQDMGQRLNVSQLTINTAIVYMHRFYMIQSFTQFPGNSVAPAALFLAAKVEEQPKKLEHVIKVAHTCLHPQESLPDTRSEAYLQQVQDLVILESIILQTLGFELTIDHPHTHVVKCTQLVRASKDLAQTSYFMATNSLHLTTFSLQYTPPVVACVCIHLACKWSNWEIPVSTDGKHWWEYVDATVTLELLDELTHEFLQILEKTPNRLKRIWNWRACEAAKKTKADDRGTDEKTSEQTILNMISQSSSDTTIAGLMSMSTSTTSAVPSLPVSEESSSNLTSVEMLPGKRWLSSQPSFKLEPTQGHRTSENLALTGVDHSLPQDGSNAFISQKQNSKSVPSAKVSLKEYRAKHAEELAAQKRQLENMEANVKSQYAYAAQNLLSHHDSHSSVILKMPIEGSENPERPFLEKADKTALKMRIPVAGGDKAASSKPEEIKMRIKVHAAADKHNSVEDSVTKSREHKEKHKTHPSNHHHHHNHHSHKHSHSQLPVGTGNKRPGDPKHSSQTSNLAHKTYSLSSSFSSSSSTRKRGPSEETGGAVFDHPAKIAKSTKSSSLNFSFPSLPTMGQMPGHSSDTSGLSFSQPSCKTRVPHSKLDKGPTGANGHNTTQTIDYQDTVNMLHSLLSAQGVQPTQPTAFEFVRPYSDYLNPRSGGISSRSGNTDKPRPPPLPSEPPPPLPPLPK

SMILES	IC50 [1]	IC50 [2]	IC50 [3]	IC50 [1, 4]	IC50 [3, 4]
CCOC(=O)N=S(C)(=O)Cc1cccc(Nc2ncnc(-c3ccccc3OC)n2)c1 (racemic) [Example 25, (rac)-Ethyl [(3-{[4-(2-methoxyphenyl)-1,3,5-triazin-2-yl]amino}benzyl)(methyl)oxido-λ^6-sulfanylidene]carbamate]	28 nM	1.1 µM	6300 nM		
CS(=N)(=O)Cc1cccc(Nc2ncnc(-c3cccc4c3OCCC4)n2)c1 (racemic) [Example 30, (rac)-4-(3,4-Dihydro-2H-chromen-8-yl)-N-{3-[(S-methylsulfonimidoyl)methyl]phenyl}-1,3,5-triazin-2-amine]		1.2 µM	940 nM		
COc1cc(F)ccc1-c1ncnc(Nc2cccc(CS(C)(=O)=NS(C)(=O)=O)c2)n1 (racemic) [Example 44, (rac)-N-[(3-{[4-(4-Fluoro-2-methoxyphenyl)-1,3,5-triazin-2-yl]amino}benzyl)(methyl)oxido-λ^6-sulfanylidene]methanesulfonamide]	20 nM	1 µM	1800 nM		
COc1cc(F)ccc1-c1ncnc(Nc2ccc(Cl)c(CS(C)(=N)=O)c2)n1 (racemic) [Example 59, (rac)-N-{4-Chloro-3-[(S-methylsulfonimidoyl)methyl]phenyl}-4-(4-fluoro-2-methoxyphenyl)-1,3,5-triazin-2-amine]	26 nM	0.86 µM	1400 nM		
CS(=N)(=O)Cc1cccc(Nc2ncnc(-c3ccc(F)cc3OCc3cccnc3)n2)c1 (racemic) [Example 66, (rac)-4-[4-Fluoro-2-(pyridin-3-ylmethoxy)phenyl]-N-{3-[(S-methylsulfonimidoyl)methyl]phenyl}-1,3,5-triazin-2-amine]	24 nM	1.7 µM	1600 nM		
COc1cc(Cl)ccc1-c1ncnc(Nc2cccc(CS(C)(=N)=O)c2)n1 (single isomer, unassigned) [Example 14, 4-(4-Chloro-2-methoxyphenyl)-N-{3-[(S-methylsulfonimidoyl)methyl]phenyl}-1,3,5-triazin-2-amine]	160 nM		13000 nM		
COc1ccccc1-c1ncnc(Nc2cccc(CS(C)(=N)=O)c2)n1 (single isomer, unassigned) [Example 27, 4-(2-Methoxyphenyl)-N-{3-[(S-methylsulfonimidoyl)methyl]phenyl}-1,3,5-triazin-2-amine]	100 nM		7600 nM		
COc1ccccc1-c1ncnc(Nc2cccc(CS(C)(=N)=O)c2)n1 (single isomer, unassigned) [Example 28, 4-(2-Methoxyphenyl)-N-{3-[(S-methylsulfonimidoyl)methyl]phenyl}-1,3,5-triazin-2-amine]	89 nM		5900 nM		
CS(=N)(=O)Cc1cccc(Nc2ncnc(-c3cccc4c3OCC4)n2)c1 (single isomer, unassigned) [Example 35, 4-(2,3-Dihydro-1-benzofuran-7-yl)-N-{3-[(S-methylsulfonimidoyl)methyl]phenyl}-1,3,5-triazin-2-amine]	64 nM		3100 nM		
CS(=N)(=O)Cc1cccc(Nc2ncnc(-c3cccc4c3OCC4)n2)c1 (single isomer, unassigned) [Example 36, 4-(2,3-Dihydro-1-benzofuran-7-yl)-N-{3-[(S-methylsulfonimidoyl)methyl]phenyl}-1,3,5-triazin-2-amine]	50 nM		2900 nM		

The remaining lines, values ahead:

IC50 [1]	IC50 [2]	IC50 [3]	IC50 [1, 4]	IC50 [3, 4]	SMILES
30 nM	1.1 µM	3200 nM			CS(=N)(=O)Cc1cccc(Nc2ncnc(-c3ccc(F)cc3OCCC3CC3)n2)c1 (racemic) [Example 76, (rac)-4-[2-(2-Cyclopropylethoxy)-4-fluorophenyl]-N-{3-[(S-methylsulfonimidoyl)methyl]phenyl}-1,3,5-triazin-2-amine]
13 nM	0.73 µM	1000 nM			CS(=N)(=O)Cc1cccc(Nc2ncnc(-c3ccc(F)cc3OCc3ccc(F)c(F)c3)n2)c1 (racemic) [Example 80, (rac)-4-{2-[(3,4-Difluorobenzyl)oxy]-4-fluorophenyl}-N-{3-[(S-methylsulfonimidoyl)methyl]phenyl}-1,3,5-triazin-2-amine]
23 nM	0.86 µM	1500 nM			CS(=N)(=O)Cc1cccc(Nc2ncnc(-c3ccc(F)cc3OCc3cncs3)n2)c1 (racemic) [Example 81, (rac)-4-[4-Fluoro-2-(1,3-thiazol-5-ylmethoxy)phenyl]-N-{3-[(S-methylsulfonimidoyl)methyl]phenyl}-1,3,5-triazin-2-amine]
8 nM	1.1 µM	1400 nM			CS(=N)(=O)Cc1cccc(Nc2ncnc(-c3ccc(F)cc3OCc3ccc(C(F)(F)F)cc3)n2)c1 (racemic) [Example 86, (rac)-4-(4-Fluoro-2-{[4-(trifluoromethyl)benzyl]oxy}phenyl)-N-{3-[(S-methylsulfonimidoyl)methyl]phenyl}-1,3,5-triazin-2-amine]
7 nM	0.68 µM	2000 nM			CS(=N)(=O)Cc1cccc(Nc2ncnc(-c3ccc(F)cc3OCc3ccon3)n2)c1 (racemic) [Example 93, (rac)-4-[4-Fluoro-2-(1,2-oxazol-3-ylmethoxy)phenyl]-N-{3-[(S-methylsulfonimidoyl)methyl]phenyl}-1,3,5-triazin-2-amine]
21 nM	1.1 µM	1800 nM			CS(=N)(=O)Cc1cccc(Nc2ncnc(-c3ccc(F)cc3OCC(F)F)n2)c1 (racemic) [Example 95, (rac)-4-[2-(2,2-Difluoroethoxy)-4-fluorophenyl]-N-{3-[(S-methylsulfonimidoyl)methyl]phenyl}-1,3,5-triazin-2-amine]
3 nM	1 µM	350 nM			Cc1cc(COc2cc(F)ccc2-c2ncnc(Nc3cccc(CS(C)(=N)=O)c3)n2)ccc1F (racemic) [Example 96, (rac)-4-{4-Fluoro-2-[(4-fluoro-3-methylbenzyl)oxy]phenyl}-N-{3-[(S-methylsulfonimidoyl)methyl]phenyl}-1,3,5-triazin-2-amine]
3 nM	0.94 µM	200 nM			CS(=N)(=O)Cc1cccc(Nc2ncnc(-c3ccc(F)cc3OCc3ccc(F)c(Cl)c3)n2)c1 (racemic) [Example 97, (rac)-4-{2-[(3-Chloro-4-fluorobenzyl)oxy]-4-fluorophenyl}-N-{3-[(S-methylsulfonimidoyl)methyl]phenyl}-1,3,5-triazin-2-amine]
			24 nM	780 nM	CCS(=N)(=O)Cc1cccc(Nc2ncnc(-c3ccc(F)cc3OC)n2)c1 (single isomer, unassigned) [Example 109, N-{3-[(S-ethylsulfonimidoyl)methyl]phenyl}-4-(4-fluoro-2-methoxyphenyl)-1,3,5-triazin-2-amine]
			9 nM	1100 nM	CCS(=N)(=O)Cc1cccc(Nc2ncnc(-c3ccc(F)cc3OC)n2)c1 (single isomer, unassigned) [Example 110, N-{3-[(S-ethylsulfonimidoyl)methyl]phenyl}-4-(4-fluoro-2-methoxyphenyl)-1,3,5-triazin-2-amine]
22 nM		3500 nM			CC(Oc1cc(F)ccc1-c1ncnc(Nc2cccc(CS(C)(=N)=O)c2)n1)c1ccc(F)cc1 (stereo not drawn) [Example 69, 4-{4-Fluoro-2-[1-(4-fluorophenyl)ethoxy]phenyl}-N-{3-[(S-methylsulfonimidoyl)methyl]phenyl}-1,3,5-triazin-2-amine]
